The target in test [1] is T1, L-phenylalanine dehydrogenase produced by Sporosarcina ureae SCRC-R04 (Sporosarcina ureae, UniProt P97014).
T1 sequence (P97014 1-379): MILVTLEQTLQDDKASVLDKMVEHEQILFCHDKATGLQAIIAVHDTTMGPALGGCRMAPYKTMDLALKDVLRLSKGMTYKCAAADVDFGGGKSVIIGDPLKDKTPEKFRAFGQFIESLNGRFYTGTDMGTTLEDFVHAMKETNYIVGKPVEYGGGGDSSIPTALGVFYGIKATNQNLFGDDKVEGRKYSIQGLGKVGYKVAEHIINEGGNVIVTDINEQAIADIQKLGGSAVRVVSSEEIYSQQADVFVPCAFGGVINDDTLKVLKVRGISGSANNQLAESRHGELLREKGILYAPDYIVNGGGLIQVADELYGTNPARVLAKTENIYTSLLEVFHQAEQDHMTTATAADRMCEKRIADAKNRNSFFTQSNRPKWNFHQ
Briefly: Substrate and coenzyme specificity, oxidative deamination (Sporosarcina enzyme). It counts as biochemical. Conditions: for activity at 10000 µM: substrate concentration 10 mM, L-phenylalanine = 100. The protocol: The substrate concentration is 10 mM, except for the L-tyrosine concentration which is 1.4 mM.

In test [2] the target is T2, L-phenylalanine dehydrogenase produced by Bacillus sp. SCRC-R79a (Lysinibacillus sphaericus, UniProt P23307).
T2 sequence (P23307 1-381): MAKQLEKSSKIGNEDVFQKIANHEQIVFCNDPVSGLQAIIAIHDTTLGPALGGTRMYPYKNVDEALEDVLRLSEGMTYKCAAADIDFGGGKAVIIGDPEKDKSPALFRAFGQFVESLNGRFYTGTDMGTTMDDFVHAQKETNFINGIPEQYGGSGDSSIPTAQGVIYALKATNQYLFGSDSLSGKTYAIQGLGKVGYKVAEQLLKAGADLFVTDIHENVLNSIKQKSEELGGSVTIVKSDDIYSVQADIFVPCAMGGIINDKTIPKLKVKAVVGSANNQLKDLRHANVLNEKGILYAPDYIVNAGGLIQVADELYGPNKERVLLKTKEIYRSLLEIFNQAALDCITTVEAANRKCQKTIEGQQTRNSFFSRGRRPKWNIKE
Briefly: Substrate and coenzyme specificity, oxidative deamination (Bacillus enzyme). It counts as biochemical. Also noted: inoculated with Bacillus sp; endogenous in cells; host or cells: Bacillus sp; enzyme purified in house. The protocol: The substrate concentration is 10 mM except for the L-tyrosine concentration which is 1.4 mM.

Test [3] concerns the target T2, L-phenylalanine dehydrogenase produced by Bacillus sp. SCRC-R79a. Conditions: pH 9.0; phenylpyruvate to L-phenylalanine as 100%.
Where [4] appears, read: oxidative deamination, read-out: Relative activity (%).
[5] abbreviates: read-out: Relative activity (%).
The mark [6] stands for this setting: oxidative deamination, substrate concentration 10 mM, L-phenylalanine = 100, read-out: Relative activity (%).

Like-named read-outs stand apart in the source and are kept apart here.

On to `N[C@@H](Cc1c[nH]cn1)C(=O)O` [L-histidine], for which the “action of the enzyme on the amino acid as substrate (in words)” value (“action of the enzyme on the amino acid” below) in test [1] (oxidative deamination) and in test [2] (oxidative deamination) was “cannot serve as a substrate” throughout.
`CC[C@H](C)[C@H](N)C(=O)O` [L--Isoleucine, L-isoleucine]: the activity at 10000 µM in test [1] (setting [4]) was found to be 0.54%. Also, the “action of the enzyme on the amino acid” value in test [2] (oxidative deamination) was “cannot serve as a substrate”.
For `N[C@@H](Cc1ccc(O)cc1)C(=O)O` [L--Tyrosine, L-tyrosine], the “action of the enzyme on the amino acid” value in test [1] (oxidative deamination) is “act very weakly”; in test [2] (oxidative deamination), “acting strongly”. Besides, the activity at 1400 µM in test [1] (oxidative deamination, substrate concentration 1.4 mM, read-out: Relative activity (%)) was found to be 5.4%; in test [2] (setting [5]), 72%.
For the compound `CCC[C@H](N)C(=O)O` [L--Norvaline, L-norvaline], the activity at 10000 µM came to 6.3% in test [1] (setting [4]) and 1.3% in test [2] (setting [6]).
On to `C[C@H](N)C(=O)O` [L-alanine], for which the “action of the enzyme on the amino acid” value in test [1] (oxidative deamination) and in test [2] (oxidative deamination) was “cannot serve as a substrate” each time.
Take `NCCCC[C@H](N)C(=O)O` [L-lysine]: the “action of the enzyme on the amino acid” value in test [1] (oxidative deamination) and in test [2] (oxidative deamination) was “cannot serve as a substrate” in each case.
Regarding `NC(C(=O)O)c1ccccc1` (racemic) [DL-phenylglycine], in test [1] (oxidative deamination), the “action of the enzyme on the amino acid” value is “cannot serve as a substrate”.
`O=C(O)C(=O)Cc1ccccc1` [phenylpyruvate]: the “relative rate of converting the α-keto acid to the L-amino acid” value in test [3] is 100%.
Consider `NC(=O)C[C@H](N)C(=O)O` [L-asparagine], for which the “action of the enzyme on the amino acid” value in test [1] (oxidative deamination) and in test [2] (oxidative deamination) was “cannot serve as a substrate” throughout.
As to `N[C@H](Cc1ccccc1)C(=O)O` [D-phenylalanine], the “action of the enzyme on the amino acid” value in test [1] (oxidative deamination) and in test [2] (oxidative deamination) was “cannot serve as a substrate” each time.
`N[C@@H](Cc1ccccc1)C(=O)O` [L--Phenylalanine, L-phenylalanine]: the “action of the enzyme on the amino acid” value in test [1] (oxidative deamination) and in test [2] (oxidative deamination) was “acting strongly” in each case. In addition, the activity at 10000 µM in test [1] (setting [4]) and in test [2] (setting [6]) was 100% each time.
Regarding `CC[C@H](N)C(=O)O` [L-α-amino-n-butyric acid], the “action of the enzyme on the amino acid” value in test [2] (oxidative deamination) was “cannot serve as a substrate”.
For `CC(C)C[C@H](N)C(=O)O` [L--Leucine, L-leucine], in test [1] (setting [4]), the activity at 10000 µM was 2.3%. Also, the “action of the enzyme on the amino acid” value in test [2] (oxidative deamination) is given as “cannot serve as a substrate”.
Regarding `N[C@@H](CO)C(=O)O` [L-serine], the “action of the enzyme on the amino acid” value in test [1] (oxidative deamination) and in test [2] (oxidative deamination) was “cannot serve as a substrate” throughout.
Take `CCSCC[C@H](N)C(=O)O` [L--Ethionine, L-ethionine]: the values for the activity at 10000 µM in test [1] (setting [4]) and in test [2] (setting [5]) were 7% and 3.1%, respectively.
For `CC(C)[C@H](N)C(=O)O` [L--Valine, L-valine], the activity at 10000 µM in test [1] (setting [4]) came to 3.1%. Moreover, the “action of the enzyme on the amino acid” value in test [2] (oxidative deamination) was “cannot serve as a substrate”.
Take `N[C@@H](CS)C(=O)O` [L-cysteine]: the “action of the enzyme on the amino acid” value in test [1] (oxidative deamination) and in test [2] (oxidative deamination) was “cannot serve as a substrate” each time.
Take `O=C(O)[C@@H]1CCCN1` [L-proline]: the “action of the enzyme on the amino acid” value in test [1] (oxidative deamination) and in test [2] (oxidative deamination) was “cannot serve as a substrate” throughout.
Regarding `CSCC[C@H](N)C(=O)O` [L--Methionine, L-methionine], the “action of the enzyme on the amino acid” value is given as “act very weakly” in test [1] (oxidative deamination) and “acting very weakly” in test [2] (oxidative deamination). The values for the activity at 10000 µM in test [1] (setting [4]) and in test [2] (setting [5]) were 4.1% and 3%, respectively.
Turning to `NC(=O)c1ccc[n+]([C@@H]2O[C@H](COP(=O)([O-])OP(=O)(O)OC[C@H]3O[C@@H](n4cnc5c(N)ncnc54)[C@H](OP(=O)(O)O)[C@@H]3O)[C@@H](O)[C@H]2O)c1` [NADP^+], the “activity relative to NAD^+ as coenzyme” value is on record as “about 3.9%” in test [1] (coenzyme) and approximately 2.9% in test [2] (coenzyme).
In the case of `CCCC[C@H](N)C(=O)O` [L--Norleucine, L-norleucine], the activity at 10000 µM in test [1] (setting [4]) was 15%; in test [2] (setting [6]), 3.9%.
With `N[C@@H](CCC(=O)O)C(=O)O` [L-glutamic acid], the “action of the enzyme on the amino acid” value in test [1] (oxidative deamination) and in test [2] (oxidative deamination) was “cannot serve as a substrate” in each case.
As for `N[C@@H](CC(=O)O)C(=O)O` [L-aspartic acid], the “action of the enzyme on the amino acid” value in test [1] (oxidative deamination) and in test [2] (oxidative deamination) was “cannot serve as a substrate” in each case.
On to `NC(=O)CC[C@H](N)C(=O)O` [L-glutamine], for which the “action of the enzyme on the amino acid” value in test [1] (oxidative deamination) and in test [2] (oxidative deamination) was “cannot serve as a substrate” each time.
As for `N=C(N)NCCC[C@H](N)C(=O)O` [L-arginine], the “action of the enzyme on the amino acid” value in test [1] (oxidative deamination) and in test [2] (oxidative deamination) was “cannot serve as a substrate” in each case.
In the case of `N[C@@H](Cc1c[nH]c2ccccc12)C(=O)O` [L--Tryptophan, L-tryptophan], the “action of the enzyme on the amino acid” value in test [1] (oxidative deamination) is “act very weakly”; in test [2] (oxidative deamination), “acting very weakly”. Moreover, the results for the activity at 10000 µM in test [1] (setting [4]) and in test [2] (setting [6]) were 6.8% and 1.6%, respectively.
Regarding `C[C@@H](O)[C@H](N)C(=O)O` [L-threonine], the “action of the enzyme on the amino acid” value in test [1] (oxidative deamination) and in test [2] (oxidative deamination) was “cannot serve as a substrate” throughout.

For the origin of these results see patent US4849345A, “L-phenylalanine dehydrogenase and use thereof” (priority 1985, dated 1989).
